# Laboratory results as given in patent US20230027066A1 (Urovant Sciences GmbH, priority 2019, published 2023).
# System: men and women with overactive bladder
# Assay: Phase 3 study of vibegron 75 mg vs placebo and tolterodine ER 4 mg, 12 weeks, efficacy (voiding and urine volume diary)
# Type: in vivo, human
# Settings: for Urgency 50% responders, Active - Placebo CMH Difference / Patients with at Least 50% Reduction in Urgency Episodes, Adjusted (%) / Patients with at Least 50% Reduction in Urgency Episodes, Adjusted n / Patients with at Least 50% Reduction in Urgency Episodes, Unadjusted (%) / Patients with at Least 50% Reduction in Urgency Episodes, Unadjusted n: Dry population; for Urgency Episodes, Week 12 CFB Mean: descriptive statistics; for Micturitions: LS Mean (95% CI): Table 32, week 12
# Protocol: Enrollment of patients included individuals with OAB Wet (those with UUI, the involuntary loss of urine accompanied by urgency) and OAB Dry (those without UUI). A total of 1,518 patients were randomized across 215 study sites into one of three groups for a 12-week treatment period.
# The study consisted of a Screening Period (1 to 5 weeks), a single-blind Run-in Period (2 weeks), a randomized double-blind Treatment Period (12 weeks), and a Follow-up Period (4 weeks).
# Tolterodine ER 4 mg was the active control. […] Between the Baseline and Week 12 Visits, patients had study assessments at Week 4 and Week 8.
# The Patient Voiding Diary was used by participants (via the eDiary or paper Diary) to record the frequency of daily OAB symptoms including all micturitions, urgency, incontinence, and main reason for incontinence by selecting the respective box for each symptom occurring during the course of a given day and night.
# Urine volume data were collected separately by patients using the Urine Volume component of the eDiary, or the paper Urine Volume Chart. The Urine Volume Chart is a tool used in clinical practice and clinical investigation to assess voiding functions over a 24-hour period and is regarded as a useful instrument in the investigation of patients with voiding symptoms. Urine volume may be collected during any one (1) of the 7 Diary Days prior to the visit, and it should be recorded for ˜24 hours starting from the time the patient gets up for the day and continues until the time the patient gets up for the day on the next day.
# For the purpose of this study, the number of micturitions was defined as the number of times a patient has voided in the toilet as indicated on the Patient Voiding Diary. Average daily micturitions were calculated using the daily entries in the Patient Voiding Diary, which was completed over the 7 days prior to each study visit. Average daily number of micturitions were calculated as the total number of micturitions that occurred on a Complete Diary Day divided by the number of Complete Diary Days in the Patient Voiding Diary. A complete diary day required confirmation by the patient in the Patient Voiding Diary that all voids and leakages had been recorded for the diary day. Baseline was defined as the average number of micturitions occurring during the last evaluable diary prior to the Baseline Visit.
# The number of UUI episodes was defined as the number of times a patient had checked “urge” as the reason for accidental urine leakage. Average daily UUI episodes at each study visit were calculated in the same manner as described above for the micturition endpoint. The UUI endpoint were analyzed using only OAB Wet patients.
# For the analysis of the co-primary endpoints (change from baseline in average number of daily micturitions at Week 12 and change from baseline in average number of daily urge urinary incontinence episodes at Week 12, and placebo adjustment of each), a mixed model for repeated measure (MMRM) with restricted maximum likelihood estimation was used. This model corrects for dropout and accounts for the fact that measurements taken on the same patient over time tend to be correlated by using all available information on patients within the same covariate set to derive an estimate of the treatment effect for a dropout-free population. The analysis model for each efficacy endpoint includes terms for treatment, visit, OAB Type (Wet vs Dry), Sex (Female vs Male), Region (US vs Rest of World), baseline score, and interaction of visit by treatment.
# Primary inferences were drawn from treatment differences for the changes from baseline derived from the MMRM models at Week 12. As part of secondary objectives, the treatment differences for each post baseline visit were also derived using the same MMRM model. […]
# [1] = No prior anticholinergic use during the prior 12 months
# [2] = No prior mirabegron use during the prior 12 months
# [3] = Overall, events of Events/Censored
# [4] = Prior anticholinergic use during the prior 12 months
# [5] = Prior mirabegron use during the prior 12 months
# [6] = Week 2, events of Events/Censored
# [7] = Week 4, events of Events/Censored
compound,measurement,setting,value
"Cc1ccc(O)c([C@H](CCN(C(C)C)C(C)C)c2ccccc2)c1 [Tolterodine ER, tolterodine, reference compound]","Urgency 50% responders, Active - Placebo CMH Difference",baseline to Week 2,2.8
same,"Patients with at Least 50% Reduction in Urgency Episodes, Adjusted (%)",baseline to Week 4,20.6%
same,"Patients with at Least 50% Reduction in Urgency Episodes, Adjusted n",baseline to Week 4,20
same,"Patients with at Least 50% Reduction in Urgency Episodes, Unadjusted (%)",baseline to Week 4,25.5%
same,"Patients with at Least 50% Reduction in Urgency Episodes, Unadjusted n",baseline to Week 4,25
same,"Urgency 50% responders, Active - Placebo CMH Difference",baseline to Week 4,3.5
same,"Patients with at Least 50% Reduction in Urgency Episodes, Adjusted (%)",baseline to Week 8,28.5%
same,"Patients with at Least 50% Reduction in Urgency Episodes, Adjusted n",baseline to Week 8,28
same,"Patients with at Least 50% Reduction in Urgency Episodes, Unadjusted (%)",baseline to Week 8,30.6%
same,"Patients with at Least 50% Reduction in Urgency Episodes, Unadjusted n",baseline to Week 8,30
same,"Urgency 50% responders, Active - Placebo CMH Difference",baseline to Week 8,8.7
same,"Patients with at Least 50% Reduction in Urgency Episodes, Adjusted (%)",baseline to Week 12,29.0%
same,"Patients with at Least 50% Reduction in Urgency Episodes, Adjusted n",baseline to Week 12,28
same,"Patients with at Least 50% Reduction in Urgency Episodes, Unadjusted (%)",baseline to Week 12,32.7%
same,"Patients with at Least 50% Reduction in Urgency Episodes, Unadjusted n",baseline to Week 12,32
same,"Urgency 50% responders, Active - Placebo CMH Difference",baseline to Week 12,5.8
same,"Urgency Episodes, Week 12 CFB Mean",Males with BPH,−3.29
same,"Urgency Episodes, Week 12 CFB Mean",Males without BPH,−2.32
same,"Urgency Episodes, Week 12 CFB Mean",No Prior ACH Use in last 12 Mo.,−2.62
same,"Urgency Episodes, Week 12 CFB Mean",No Prior B3 Agonist Use in last 12 Mo.,−2.56
same,"Micturitions, 12-week change",[1],−1.8
same,"UUI Episodes, 12-week change",[1],−1.9
same,"Micturitions, 12-week change",[2],−1.8
same,"UUI Episodes, 12-week change",[2],−1.8
same,"Overall Time to First 50% Decrease in Urgency Episodes, 25th Percentile",Overall,4.3 weeks
same,"Overall Time to First 50% Decrease in Urgency Episodes, 50th Percentile",Overall,12.6 weeks
same,"Overall Time to First 50% Decrease in Urgency Episodes, Median (95% CI)",Overall,12.6 (12.3 to 12.9) weeks
same,"Overall Time to First 100% Decrease in UUI Episodes, 25th Percentile",Overall,12.1 weeks
same,"Overall Time to First 100% Decrease in UUI Episodes, 75th Percentile",Overall,16.0 weeks
same,"Overall Time to First 100% Decrease in UUI Episodes, Median (95% CI)",Overall,13.1 (12.7 to 16.0) weeks
same,"Urgency Episodes, Week 12 CFB Mean",Overall,−2.57
same,"First 50% Decrease in Urgency Episodes, Events",[3],187/230
same,"First 100% Decrease in UUI Episodes, Events",[3],93/226
same,"Urgency Episodes, Week 12 CFB Mean",Prior ACH Use in last 12 Mo.,−2.23
same,"Urgency Episodes, Week 12 CFB Mean",Prior B3 Agonist Use in last 12 Mo.,−2.72
same,"Micturitions, 12-week change",[4],−1.52
same,"UUI Episodes, 12-week change",[4],−0.98
same,"Micturitions, 12-week change",[5],−1.30
same,"UUI Episodes, 12-week change",[5],−0.65
same,Micturitions: LS Mean (95% CI),Age <65 years,−0.2 (−0.6 to 0.2)
same,Micturitions: LS Mean (95% CI),Age ≥65 years,−0.3 (−0.8 to 0.2)
same,Micturitions: LS Mean (95% CI),Age ≥75 years (posthoc analysis),−0.4 (−1.4 to 0.6)
same,Micturitions: LS Mean (95% CI),Females,−0.3 (−0.7 to 0.0)
same,Micturitions: LS Mean (95% CI),Males,0.1 (−0.7 to 0.9)
same,Micturitions: LS Mean (95% CI),Non-White,−0.1 (−0.8 to 0.6)
same,Micturitions: LS Mean (95% CI),OAB Type: Dry,−0.3 (−1.0 to 0.3)
same,Micturitions: LS Mean (95% CI),OAB Type: Wet,−0.3 (−0.6 to 0.1)
same,Micturitions: LS Mean (95% CI),Overall,−0.3 (−0.6 to 0.1)
same,Micturitions: LS Mean (95% CI),Region: Non-US,0.4 (−0.6 to 1.4)
same,Micturitions: LS Mean (95% CI),Region: US,−0.3 (−0.7 to 0.0)
same,Micturitions: LS Mean (95% CI),White,−0.3 (−0.7 to 0.0)
same,"Average Daily Number of Total Incontinence, Mean (SD)",Week 2,2.75 (2.743)
same,"Average daily number of urgency episodes, Mean (SD)",Week 2,6.30 (3.989)
same,"Average volume voided per micturition, Active - Placebo LS Mean Difference",Week 2,10.2 mL
same,"Change from Baseline in Average Daily Number of Total Incontinence, LS Mean (SE)",Week 2,−1.3 (0.15)
same,"Change from baseline in average daily number of urgency episodes, LS Mean",Week 2,−1.5
same,"Change from baseline in average volume voided per micturition, LS Mean (SE)",Week 2,12.5 (3.20) mL
same,Estimated Incidence of Subjects with 50% Decrease from Baseline (urgency episodes),Week 2,18.0
same,Estimated Incidence of Subjects with 100% Decrease from Baseline (UUI episodes),Week 2,5.6
same,"Total Incontinence, Active - Placebo LS Mean Difference (SE)",Week 2,−0.5 (0.15)
same,"Urgency episodes, Active - Placebo LS Mean Difference",Week 2,−0.6
same,"First 50% Reduction in Urgency Episodes, Events",[6],75/342
same,"First 100% Reduction in UUI Episodes, Events",[6],18/301
same,"Average volume voided per micturition, Week 2 Mean (SD)","Week 2, vibegron 75 mg, tolterodine ER 4 mg",156.7 (71.23) mL
same,"Average Daily Number of Total Incontinence, Mean (SD)",Week 4,2.54 (2.784)
same,"Average daily number of urgency episodes, Mean (SD)",Week 4,6.00 (4.097)
same,"Average volume voided per micturition, Active - Placebo LS Mean Difference",Week 4,8.9 mL
same,"Average volume voided per micturition, Week 4 Mean (SD)",Week 4,160.2 (72.76) mL
same,"Change from Baseline in Average Daily Number of Total Incontinence, LS Mean (SE)",Week 4,−1.6 (0.15)
same,"Change from baseline in average daily number of urgency episodes, LS Mean",Week 4,−1.8
same,"Change from baseline in average volume voided per micturition, LS Mean (SE)",Week 4,13.3 (3.39) mL
same,Estimated Incidence of Subjects with 50% Decrease from Baseline (urgency episodes),Week 4,19.4
same,Estimated Incidence of Subjects with 100% Decrease from Baseline (UUI episodes),Week 4,7.6
same,"Total Incontinence, Active - Placebo LS Mean Difference (SE)",Week 4,−0.5 (0.15)
same,"Urgency episodes, Active - Placebo LS Mean Difference",Week 4,−0.7
same,"First 50% Reduction in Urgency Episodes, Events",[7],81/336
same,"First 100% Reduction in UUI Episodes, Events",[7],24/295
same,"Average Daily Number of Total Incontinence, Mean (SD)",Week 8,2.20 (2.673)
